Data: US10668020B1, “Pullulan based vinpocetine tablets, lyoplant-tabs, as a buccal solid dosage form” (King Abdulaziz University, priority 2019, dated 2020)
In brackets after ≈: the same amount, converted by molar mass.

What was measured:
[1] = background statement; cited from earlier work
[2] = In vitro dissolution of the prepared solid dispersion (USP apparatus II); assay type: physicochemical; details: simulated intestinal fluid pH 6.8, 37° C.
Experimental: An in vitro dissolution study of the pure drug and the vinpocetin-PVP-VA64 inclusion complex (equivalent to 5 mg VPN) was performed in triplicate, using the United States Pharmacopeia (USP) dissolution test apparatus II paddle type, DT 700 LH device, Erweka GmbH DT 700 (Heusenstamm, Germany) at 37° C. for 2 h, with a stirring rate of 50 rpm, in 900 mL of enzyme-free simulated intestinal fluid (pH 6.8). Aliquots were collected at 5, 10, 15, 20, 25, 30, 45, 60, 90 and 120 min, with immediate replacement of an equal volume of fluid, and the collected samples were filtered through a 0.22 μm pore-size Millipore filter and assayed for drug content using high performance liquid chromatography (HPLC). From the dissolution profile curve constructed, DP5min, DP30min and DP120min, the percent of drug dissolved within 5, 30 and 120 minutes, respectively, were estimated. Also, the dissolution efficiency within 10 and 120 minutes, (DE10min) and (DE120min), respectively and, the mean dissolution time were calculated. For each formulation, the dissolution efficiency was determined as the percent ratio of area under the dissolution profile curve up to the time, t, to that of the area of the rectangle described by 100% dissolution at the same time.

[3] = Equilibrium saturation solubility and solubilization efficiency; assay type: physicochemical; details: distilled water, thermodynamic from solid; pure drug, water at 25° C.; read-out: solubility of VPN in water
Experimental: To study the effects of the prepared solid dispersions on the solubility of VPN, the equilibrium solubility was determined as previously reported. (Ahmed et al. Pharm Dev Technol. 2011; 16 (5):497-510). An excess amount of either pure drug or the prepared solid dispersions were added to screw-capped vials containing 10 mL of distilled water. The vials were placed in a thermostatically controlled shaking water bath (Model 1031; GFL Corporation. Burgwedel, Germany) at 25±0.5° C. for 48 h. […] Aliquots withdrawn were filtered through a 0.22 μm pore-size Millipore filter and assayed for drug content using high performance liquid chromatography (HPLC) method Ding et al. Asian J Pharm Sci. 2015; 10:114-120. doi:10.1016/j.ajps.2014.08.008), with slight modifications. An isocratic HPLC method was performed using Agilent 1200 series equipped with UV diode array detector. A reversed phase C18 analytical column (4×250 mm, 5 μm; Thermo Fischer Scientific) was used. The mobile phase was composed of a mixture of methanol and 0.05 ammonium acetate buffer of pH 5.5, 80:20 (v/v). The flow rate of the mobile phase was 1 mL/min, the injection volume was 20 μL and the detection wave length was 273 nm. […]
The solubility of vinpocetine, in the prepared solid dispersions, was compared to the intrinsic drug solubility and the resulting ratios of solubilization efficiency (solubility enhancement) were calculated. […]

[4] = Phase solubility study and thermodynamic parameter of solubility in aqueous PVP-VA64 solution; assay type: physicochemical
Experimental: An excess amount of pure VPN was added separately into screw-capped vials containing 10 mL of aqueous polyvinyl pyrrolidone vinyl acetate (PVP-VA64) solution (0-10% w/v). The vials were sealed and shaken in a water bath at 37° C. for 72 h. Aliquots (n=3) from each vial were filtered through a 0.22 μm pore-size Millipore filter, and the filtrates were assayed by HPLC. The change in the solubility of VPN resulting from the addition of different PVP-VA-64 concentrations was used to construct a phase-solubility plot and to evaluate the stoichiometry and the stability constant of complexation (Kst), which exemplifies the strength of the interaction and stability of the complex formed.
Calculation of the apparent stability constant, Kst, was achieved from the phase solubility diagram according to the equation described by Higuchi and Connors (Adv Anal Chem Instrum. 1965; 4:117-210), based on the assumption that 1:1 complex was initially formed.
[formula] In the equation, “So” represents the drug solubility in the absence of the studied polymer (the intercept of the phase solubility diagram constructed).
To evaluate the solubilizing efficiency of the studied polymer for the drug, the complexation efficiency (CE) was determined. It was calculated according to the following equation: CE=So K1:1=slope/(1-slope).
The Gibbs free energy (ΔG°tr) for the transfer of VPN from pure water to aqueous solutions of PVP-VA-64 was calculated using the following equation: ΔG°tr=−2.303 RT Log (Sc/So) where Sc/So is the ratio of the molar drug solubility in an aqueous solution of PVP-VA-64 to that of pure water. R is the gas rate constant ([…]) and T is the temperature in Kelvin at which the study was conducted. The Gibbs free energy can also be referred to as the thermodynamic potential that is minimized when a system reaches chemical equilibrium from an initial state to a final state at constant pressure and temperature. Dissolution of the Prepared Solid Dispersion

[5] = weak basic drug; cited from earlier work

DE120, dissolution efficiency within 120 minutes [2]: 18.67±3.73%
DE10min, dissolution efficiency within 10 minutes [2]: 0.428±0.159%
DP5min, percent of drug dissolved within 5 minutes ([2]; 50 rpm): 5.62±2.45%
DP30min, percent of drug dissolved within 30 minutes ([2]; 50 rpm): 16.46±3.58%
DP120min, percent of drug dissolved within 120 minutes ([2]; 50 rpm): 22.41±6.04%
solubility at 48 h [3]: 2.31 µg/mL (≈ 6.59 µM)
ΔG°tr ([4]; 1% polymeric solution (PVP-VA-64)): -4.789515 kJ/mol
ΔG°tr ([4]; 2% polymeric solution (PVP-VA-64)): -6.330538 kJ/mol
ΔG°tr ([4]; 3% polymeric solution (PVP-VA-64)): -7.390998 kJ/mol
ΔG°tr ([4]; 4% polymeric solution (PVP-VA-64)): -8.413708 kJ/mol
ΔG°tr ([4]; 5% polymeric solution (PVP-VA-64)): -8.775631 kJ/mol
ΔG°tr ([4]; 6% polymeric solution (PVP-VA-64)): -9.159485 kJ/mol
ΔG°tr ([4]; 7% polymeric solution (PVP-VA-64)): -9.686917 kJ/mol
ΔG°tr ([4]; 8% polymeric solution (PVP-VA-64)): -10.09766 kJ/mol
ΔG°tr ([4]; 9% polymeric solution (PVP-VA-64)): -10.27836 kJ/mol
ΔG°tr ([4]; 10% polymeric solution (PVP-VA-64)): -10.65879 kJ/mol
type of complexation (phase solubility profile) ([4]; VPN with PVP-VA-64): AP-type complexation
complexation efficiency CE ([4]; VPN with PVP-VA-64, 37° C.): 0.0014
stability constant Kst ([4]; VPN with PVP-VA-64, 37° C., 1:1 complex assumed): 7 mL/mg
Compound: CCOC(=O)C1=C[C@]2(CC)CCCN3CCc4c(n1c1ccccc41)[C@@H]32 [Vinpocetine]
elimination half-life [1]: 1 to 2 h
first pass metabolism (metabolism in liver) [1]: 75%
pKa [5]: 7.31
